Residues, ends and D or L forms follow the SMILES beside them.
What was measured:
[1] = Determination of Critical Micelle Concentration (surface tension, Wilhelmy plate); type: physicochemical; settings: triple distilled water, pH 10, 25±1° C.
Experimental: Determination of Critical Micelle Concentration. […] Surface tension was measured at 25±1° C. using the Wilhelmy plate technique with a sandblasted platinum plate as the sensor coupled to a Cahn microbalance. The entire assembly was kept in a draft-free plastic cage at a temperature of 25±1° C.

[2] = tested on: Gram-negative and Gram-positive bacteria; settings: minimal antibacterial effects; typical range; cited from earlier work

SMILES	Critical Micelle Concentration (CMC) [1] [mM]	minimum inhibitory concentration (MIC) [2] [µg/mL]
CCCCCCCCCCCC(O)CC(=O)N[C@@H](CCC(=O)O)C(=O)O (stereo partly drawn) [FA-Glu, β-hydroxy myristoyl glutamate]	1.3	
CCCCCCCCCCCCCC(=O)N[C@@H](CCC(=O)O)C(=O)O [myristoyl glutamate]	14.1	
CC(C)CCCCCCCCC[C@@H]1CC(=O)N[C@@H](CCC(=O)O)C(=O)N[C@@H](CC(C)C)C(=O)N[C@H](CC(C)C)C(=O)N[C@@H](C(C)C)C(=O)N[C@@H](CC(=O)O)C(=O)N[C@H](CC(C)C)C(=O)N[C@@H](CC(C)C)C(=O)O1 [surfactin] (HELM PEPTIDE1{E.L.[dL].V.D.[dL].L}|CHEM1{[CC(C)CCCCCCCCC[C@H](CC(=O)[*:1])O[*:2]]}$PEPTIDE1,CHEM1,1:R1-1:R1|PEPTIDE1,CHEM1,7:R2-1:R2$$$V2.0)		12 to 50

From patent publication US20100093060A1, “GROWTH OF MICROORGANISMS IN CELLULOSIC MEDIA” (priority 2008, published 2010)
